Data taken from patent publication US12570671B2 (BRISTOL-MYERS SQUIBB COMPANY, priority 2020, dated 2026).

Key:
Ikaros = Ikaros (Homo sapiens, UniProt Q13422+Q96SW2); assay: Helios Cellular Degradation Assay (Ikaros readout); format: cell-based; parameters: endogenous in cells; host or cells: Jurkat; details: Jurkat cells, 72 h incubation, Ikaros-Alexa488 antibody staining, flow cytometry; read-out: Ikaros Jurkat IC50
Method in brief: (§1)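 Jurkat cells (80,000/well, RPMI+10% FBS) were treated with compound for 72 h at 37° C. After fixation and permeabilization they were stained with fluorescent antibodies to Helios, Ikaros and Aiolos. Intracellular protein levels were quantified by flow cytometry.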

Helios = Helios (Homo sapiens, UniProt Q96SW2+Q9UKS7); assay: Helios Cellular Degradation Assay (Helios readout); format: cell-based; parameters: endogenous in cells; host or cells: Jurkat; details: Jurkat cells, 72 h incubation, Helios-PE antibody staining, flow cytometry; read-out: Helios Jurkat IC50
Method in brief: as §1

Helios, sequence (Q9UKS7 whole entry): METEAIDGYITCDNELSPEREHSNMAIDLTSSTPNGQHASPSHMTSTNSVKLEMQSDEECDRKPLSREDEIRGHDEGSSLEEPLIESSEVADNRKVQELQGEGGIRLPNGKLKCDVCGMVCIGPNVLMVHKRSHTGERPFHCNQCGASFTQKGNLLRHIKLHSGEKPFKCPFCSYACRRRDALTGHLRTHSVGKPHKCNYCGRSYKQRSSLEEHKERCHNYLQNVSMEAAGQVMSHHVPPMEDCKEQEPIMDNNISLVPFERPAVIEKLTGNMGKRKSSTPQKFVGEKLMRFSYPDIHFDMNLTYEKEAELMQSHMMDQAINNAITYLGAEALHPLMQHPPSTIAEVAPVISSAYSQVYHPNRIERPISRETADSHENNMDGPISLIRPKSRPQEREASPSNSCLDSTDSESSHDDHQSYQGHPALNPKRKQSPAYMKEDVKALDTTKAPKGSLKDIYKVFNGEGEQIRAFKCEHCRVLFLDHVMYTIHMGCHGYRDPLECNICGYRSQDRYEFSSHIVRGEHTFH
Helios, sequence (Q96SW2 whole entry): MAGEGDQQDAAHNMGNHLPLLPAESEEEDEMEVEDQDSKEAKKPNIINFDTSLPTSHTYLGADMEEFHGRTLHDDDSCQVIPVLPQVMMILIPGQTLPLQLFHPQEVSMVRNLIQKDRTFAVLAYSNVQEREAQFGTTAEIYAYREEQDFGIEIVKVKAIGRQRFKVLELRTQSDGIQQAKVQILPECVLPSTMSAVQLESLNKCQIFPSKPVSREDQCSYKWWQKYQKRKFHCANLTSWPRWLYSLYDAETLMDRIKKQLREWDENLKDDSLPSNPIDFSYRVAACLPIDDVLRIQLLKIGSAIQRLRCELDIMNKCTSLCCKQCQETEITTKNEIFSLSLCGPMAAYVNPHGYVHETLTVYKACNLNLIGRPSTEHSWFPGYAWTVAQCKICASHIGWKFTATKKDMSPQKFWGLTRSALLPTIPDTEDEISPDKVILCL
Helios, sequence (Q16531 whole entry partner): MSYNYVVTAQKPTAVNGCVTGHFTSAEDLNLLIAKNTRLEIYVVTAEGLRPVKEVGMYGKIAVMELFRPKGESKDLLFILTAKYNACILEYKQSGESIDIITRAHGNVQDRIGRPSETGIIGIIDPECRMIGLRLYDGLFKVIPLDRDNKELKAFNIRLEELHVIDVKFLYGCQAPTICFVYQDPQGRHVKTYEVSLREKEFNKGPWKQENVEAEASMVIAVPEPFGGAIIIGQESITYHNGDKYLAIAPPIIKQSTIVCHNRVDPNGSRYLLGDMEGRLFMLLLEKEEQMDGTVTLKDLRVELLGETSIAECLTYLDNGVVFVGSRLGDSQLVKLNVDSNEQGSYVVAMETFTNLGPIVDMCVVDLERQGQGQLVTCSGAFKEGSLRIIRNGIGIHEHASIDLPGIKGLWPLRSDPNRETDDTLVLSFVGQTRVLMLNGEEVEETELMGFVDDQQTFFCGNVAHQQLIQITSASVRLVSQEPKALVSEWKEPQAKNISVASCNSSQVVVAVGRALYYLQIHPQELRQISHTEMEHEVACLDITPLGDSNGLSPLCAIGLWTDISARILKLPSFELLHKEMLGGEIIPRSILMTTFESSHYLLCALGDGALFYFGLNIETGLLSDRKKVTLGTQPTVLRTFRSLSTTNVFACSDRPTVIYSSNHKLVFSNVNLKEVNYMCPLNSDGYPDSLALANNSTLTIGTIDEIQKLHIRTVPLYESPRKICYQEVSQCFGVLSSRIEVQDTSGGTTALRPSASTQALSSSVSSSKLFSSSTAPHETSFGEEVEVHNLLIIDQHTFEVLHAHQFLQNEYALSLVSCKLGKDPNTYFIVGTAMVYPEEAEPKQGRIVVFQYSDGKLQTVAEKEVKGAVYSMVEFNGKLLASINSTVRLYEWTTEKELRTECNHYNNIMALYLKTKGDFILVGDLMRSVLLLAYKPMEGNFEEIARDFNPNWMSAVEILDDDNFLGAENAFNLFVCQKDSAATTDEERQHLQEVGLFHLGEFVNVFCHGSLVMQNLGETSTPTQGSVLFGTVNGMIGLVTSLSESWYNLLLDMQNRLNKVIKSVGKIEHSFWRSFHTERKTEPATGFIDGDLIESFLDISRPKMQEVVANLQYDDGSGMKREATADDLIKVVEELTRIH
Ikaros, sequence (Q13422 whole entry): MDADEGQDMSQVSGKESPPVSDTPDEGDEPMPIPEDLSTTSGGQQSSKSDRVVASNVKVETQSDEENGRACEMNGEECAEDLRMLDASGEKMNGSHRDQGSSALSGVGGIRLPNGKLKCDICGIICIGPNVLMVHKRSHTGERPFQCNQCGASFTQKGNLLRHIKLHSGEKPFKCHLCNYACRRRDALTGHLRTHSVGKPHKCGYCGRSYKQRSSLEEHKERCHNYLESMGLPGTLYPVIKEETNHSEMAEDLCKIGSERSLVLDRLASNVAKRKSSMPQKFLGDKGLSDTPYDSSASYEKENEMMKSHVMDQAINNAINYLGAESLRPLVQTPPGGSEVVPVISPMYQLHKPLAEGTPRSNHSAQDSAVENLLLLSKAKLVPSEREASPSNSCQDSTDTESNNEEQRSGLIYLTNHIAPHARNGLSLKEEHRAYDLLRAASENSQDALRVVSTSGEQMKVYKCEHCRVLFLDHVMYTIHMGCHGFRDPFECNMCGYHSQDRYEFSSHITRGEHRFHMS
Ikaros, sequence (Q96SW2 whole entry): as the sequence (Q96SW2 whole entry) above
Ikaros, sequence (Q16531 whole entry partner): as the sequence (Q16531 whole entry partner) above

Row | SMILES | DC50 (Ikaros) [nM] | DC50 (Helios) [nM]
1 | O=C1CC[C@H](N2Cc3cc(-c4ccc5cccnc5n4)ccc3C2=O)C(=O)N1 [Example 122, (3S)-3-[5-(1,8-naphthyridin-2-yl)-1-oxo-2,3-dihydro-1H-isoindol-2-yl]piperidine-2,6-dione] | ≥ 20000 | 50
2 | N#Cc1nc(-c2ccc3c(c2)CN([C@H]2CCC(=O)NC2=O)C3=O)cc2ccccc12 [Example 125, 3-{2-[(3 S)-2,6-dioxopiperidin-3-yl]-1-oxo-2,3-dihydro-1H-isoindol-5-yl}isoquinoline-1-carbonitrile] | ≥ 20000 | 40
3 | CC(=O)O[C@H]1CCOc2nc(-c3ccc4c(c3)CN([C@H]3CCC(=O)NC3=O)C4=O)ccc21 [Example 127, (4S)-7-{2-[(3S)-2,6-dioxopiperidin-3-yl]-1-oxo-2,3-dihydro-1H-isoindol-5-yl}-2H,3H,4H-pyrano[2,3-b]pyridin-4-yl acetate] | ≥ 20000 | 7460
4 | CC(=O)O[C@@H]1CCOc2nc(-c3ccc4c(c3)CN([C@H]3CCC(=O)NC3=O)C4=O)ccc21 [Example 128, (4R)-7-{2-[(3S)-2,6-dioxopiperidin-3-yl]-1-oxo-2,3-dihydro-1H-isoindol-5-yl}-2H,3H,4H-pyrano[2,3-b]pyridin-4-yl acetate] | ≥ 20000 | 2830
5 | CN(C)c1cnc(-c2ccc3c(c2)CN(C2CCC(=O)NC2=O)C3=O)c2cc(Cl)ccc12 (centres unmarked) [Example 129, 3-{5-[7-chloro-4-(dimethylamino)isoquinolin-1-yl]-1-oxo-2,3-dihydro-1H-isoindol-2-yl}piperidine-2,6-dione] | 90 | 10
6 | CN(C)C(=O)c1c(-c2ccc3c(c2)CN(C2CCC(=O)NC2=O)C3=O)nc(N)c2ccccc12 (centres unmarked) [Example 130, 1-amino-3-[2-(2,6-dioxopiperidin-3-yl)-1-oxo-2,3-dihydro-1H-isoindol-5-yl]-N,N-dimethylisoquinoline-4-carboxamide] | ≥ 20000 | 450
7 | Cc1c(-c2ccc3c(c2)CN(C2CCC(=O)NC2=O)C3=O)nc(N)c2ccccc12 (centres unmarked) [Example 131, 3-[5-(1-amino-4-methylisoquinolin-3-yl)-1-oxo-2,3-dihydro-1H-isoindol-2-yl]piperidine-2,6-dione] | ≥ 20000 | 140
8 | Nc1ccc(C2CC2)c(-c2ccc3c(c2)CN(C2CCC(=O)NC2=O)C3=O)n1 (centres unmarked) [Example 132, 3-[5-(6-amino-3-cyclopropylpyridin-2-yl)-1-oxo-2,3-dihydro-1H-isoindol-2-yl]piperidine-2,6-dione] | ≥ 20000 | 20
9 | CC(=O)Nc1ccc2c(-c3ccc4c(c3)CN(C3CCC(=O)NC3=O)C4=O)nccc2c1 (centres unmarked) [Example 134, N-{1-[2-(2,6-dioxopiperidin-3-yl)-1-oxo-2,3-dihydro-1H-isoindol-5-yl]isoquinolin-6-yl}acetamide] | ≥ 20000 | 100
10 | Nc1cc(CCl)cc(-c2ccc3c(c2)CN(C2CCC(=O)NC2=O)C3=O)n1 (centres unmarked) [Example 135, 3-{5-[6-amino-4-(chloromethyl)pyridin-2-yl]-1-oxo-2,3-dihydro-1H-isoindol-2-yl}piperidine-2,6-dione] | ≥ 10000 | 230
11 | O=C1CCC(N2Cc3cc(-c4ccc5c(n4)NCCC5)ccc3C2=O)C(=O)N1 (centres unmarked) [Example 137, 3-[1-oxo-5-(5,6,7,8-tetrahydro-1,8-naphthyridin-2-yl)-2,3-dihydro-1H-isoindol-2-yl]piperidine-2,6-dione] | ≥ 10000 | 10
12 | CN(C)Nc1cccc(-c2ccc3c(c2)CN(C2CCC(=O)NC2=O)C3=O)n1 (centres unmarked) [Example 138, 3-{5-[6-(2,2-dimethylhydrazin-1-yl)pyridin-2-yl]-1-oxo-2,3-dihydro-1H-isoindol-2-yl}piperidine-2,6-dione] | ≥ 10000 | 920
13 | O=C1CCC(N2Cc3cc(-c4ccc5[nH]cnc5n4)ccc3C2=O)C(=O)N1 (centres unmarked) [Example 139, 3-(5-(1H-imidazo[4,5-b]pyridin-5-yl)-1-oxoisoindolin-2-yl)piperidine-2,6-dione] | ≥ 20000 | 4160
14 | O=C1CCC(N2Cc3cc(-c4ccc5c(n4)NCCO5)ccc3C2=O)C(=O)N1 (centres unmarked) [Example 141, 3-(5-(3,4-dihydro-2H-pyrido[3,2-b][1,4]oxazin-6-yl)-1-oxoisoindolin-2-yl)piperidine-2,6-dione] | ≥ 20000 | 80
15 | COc1cc(C)cc(-c2ccc3c(c2)CN(C2CCC(=O)NC2=O)C3=O)n1 (centres unmarked) [Example 146, 3-(5-(6-methoxy-4-methylpyridin-2-yl)-1-oxoisoindolin-2-yl)piperidine-2,6-dione] | ≥ 20000 | 190
16 | Cc1cc(O)nc(-c2ccc3c(c2)CN(C2CCC(=O)NC2=O)C3=O)c1 (centres unmarked) [Example 147, 3-(5-(6-hydroxy-4-methylpyridin-2-yl)-1-oxoisoindolin-2-yl)piperidine-2,6-dione] | ≥ 10000 | 310
17 | Cc1cc(-c2ccc3c(c2)CN(C2CCC(=O)NC2=O)C3=O)nc(N)c1C#N (centres unmarked) [Example 148, 2-amino-6-(2-(2,6-dioxopiperidin-3-yl)-1-oxoisoindolin-5-yl)-4-methylnicotinonitrile] | ≥ 10000 | 10
18 | COc1c(C)cc(-c2ccc3c(c2)CN(C2CCC(=O)NC2=O)C3=O)nc1N (centres unmarked) [Example 153, 3-(5-(6-amino-5-methoxy-4-methylpyridin-2-yl)-1-oxoisoindolin-2-yl)piperidine-2,6-dione] | ≥ 10000 | 70
19 | COc1cccc(-c2ccc3c(c2)CN(C2CCC(=O)NC2=O)C3=O)n1 (centres unmarked) [Example 155, 3-[5-(6-Methoxypyridin-2-yl)-1-oxo-2,3-dihydro-1H-isoindol-2-yl]piperidine-2,6-dione] | ≥ 20000 | 5330

More lines, now with the values ahead:

Row | DC50 (Ikaros) [nM] | DC50 (Helios) [nM] | SMILES
20 | ≥ 20000 | 80 | Nc1cc2ccccc2c(-c2ccc3c(c2)CN([C@H]2CCC(=O)NC2=O)C3=O)n1 [Example 123, (S)-3-(5-(3-aminoisoquinolin-1-yl)-1-oxoisoindolin-2-yl)piperidine-2,6-dione]
21 | ≥ 20000 | 80 | CC(=O)Nc1cc2ccccc2c(-c2ccc3c(c2)CN([C@H]2CCC(=O)NC2=O)C3=O)n1 [Example 124, (S)—N-(1-(2-(2,6-dioxopiperidin-3-yl)-1-oxoisoindolin-5-yl)isoquinolin-3-yl)acetamide]
22 | ≥ 20000 | 2990 | NC(=O)c1nc(-c2ccc3c(c2)CN([C@H]2CCC(=O)NC2=O)C3=O)cc2ccccc12 [Example 126, 3-{2-[(3S)-2,6-dioxopiperidin-3-yl]-1-oxo-2,3-dihydro-1H-isoindol-5-yl}isoquinoline-1-carboxamide]
23 | ≥ 20000 | 10 | Nc1ccc2c(-c3ccc4c(c3)CN(C3CCC(=O)NC3=O)C4=O)nccc2c1 (centres unmarked) [Example 133, 3-[5-(6-aminoisoquinolin-1-yl)-1-oxo-2,3-dihydro-1H-isoindol-2-yl]piperidine-2,6-dione]
24 | ≥ 10000 | 290 | O=C1CCC(N2Cc3cc(-c4ccc5c(n4)NCCCC5)ccc3C2=O)C(=O)N1 (centres unmarked) [Example 136, 3-(1-oxo-5-{5H,6H,7H,8H,9H-pyrido[2,3-b]azepin-2-yl}-2,3-dihydro-1H-isoindol-2-yl) piperidine-2,6-dione]
25 | ≥ 20000 | 20 | Cc1cc(N)nc(-c2ccc3c(c2)CN(C2CCC(=O)NC2=O)C3=O)c1 (centres unmarked) [Example 140, 3-(5-(6-amino-4-methylpyridin-2-yl)-1-oxoisoindolin-2-yl)piperidine-2,6-dione]
26 | ≥ 20000 | 1350 | Nc1cncc(-c2ccc3c(c2)CN(C2CCC(=O)NC2=O)C3=O)n1 (centres unmarked) [Example 142, 3-(5-(6-aminopyrazin-2-yl)-1-oxoisoindolin-2-yl)piperidine-2,6-dione]
27 | ≥ 20000 | 610 | Cc1cc(-c2ccc3c(c2)CN(C2CCC(=O)NC2=O)C3=O)nc(N)n1 (centres unmarked) [Example 143, 3-(5-(2-amino-6-methylpyrimidin-4-yl)-1-oxoisoindolin-2-yl)piperidine-2,6-dione]
28 | ≥ 20000 | 83 | Cc1cc(C)nc(-c2ccc3c(c2)CN(C2CCC(=O)NC2=O)C3=O)c1 (centres unmarked) [Example 144, 3-(5-(4,6-dimethylpyridin-2-yl)-1-oxoisoindolin-2-yl)piperidine-2,6-dione]
29 | ≥ 20000 | 10 | O=C1CCC(N2Cc3cc(-c4nc(O)cc5c(Cl)cccc45)ccc3C2=O)C(=O)N1 (centres unmarked) [Example 145, 3-(5-(5-chloro-3-hydroxyisoquinolin-1-yl)-1-oxoisoindolin-2-yl)piperidine-2,6-dione]
30 | ≥ 10000 | 190 | N#Cc1cc(N)nc(-c2ccc3c(c2)CN(C2CCC(=O)NC2=O)C3=O)c1 (centres unmarked) [Example 149, 2-amino-6-(2-(2,6-dioxopiperidin-3-yl)-1-oxoisoindolin-5-yl)isonicotinonitrile]
31 | ≥ 10000 | 32 | Nc1nc(-c2ccc3c(c2)CN(C2CCC(=O)NC2=O)C3=O)cc2c1CCCC2 (centres unmarked) [Example 150, 3-(5-(1-amino-5,6,7,8-tetrahydroisoquinolin-3-yl)-1-oxoisoindolin-2-yl)piperidine-2,6-dione]
32 | ≥ 10000 | 10 | Cc1cc(-c2ccc3c(c2)CN(C2CCC(=O)NC2=O)C3=O)nc(N)c1C (centres unmarked) [Example 151, 3-(5-(6-amino-4,5-dimethylpyridin-2-yl)-1-oxoisoindolin-2-yl)piperidine-2,6-dione]
33 | ≥ 10000 | 760 | Cc1cc(-c2ccc3c(c2)CN(C2CCC(=O)NC2=O)C3=O)ncc1C#N (centres unmarked) [Example 152, 6-(2-(2,6-dioxopiperidin-3-yl)-1-oxoisoindolin-5-yl)-4-methylnicotinonitrile]
34 | ≥ 20000 | 500 | COc1nc(-c2ccc3c(c2)CN(C2CCC(=O)NC2=O)C3=O)cc2ccccc12 (centres unmarked) [Example 156, 3-[5-(1-Methoxyisoquinolin-3-yl)-1-oxo-2,3-dihydro-1H-isoindol-2-yl]piperidine-2,6-dione]
